Measurements taken from US20240181000A1, “LGG-DERIVED PEPTIDES AND METHODS OF USE THEREOF” (Ohio State Innovation Foundation, priority 2021, published 2024).
Marks after values point to notes of the source that are not given here. No end group written: not given here.

Experiments:
[1] = tested on: Salmonella enterica subsp. enterica serovar Typhimurium LT2 (ST); assay: Anti-Salmonella growth inhibition and MIC; format: cell-based; settings: No treatment
Experimental: Primary screening for anti-Salmonella activity of peptides: The inhibitory effect of the peptides was accessed as described previously. ST was grown overnight and adjusted to 5×10^5 CFU/mL; 100 microliters of this measured concentration was placed into the wells of a 96 well plate. Peptides 1-6 were added to the well at 12 mM concentration and plate was incubated in a TECAN Sunrise™ absorbance microplate reader at 37° C. with kinetic absorbance measurements taken every 30 minutes for 12 h. The growth inhibitory activity was calculated with the formula (OD600 DMSO treated well-OD600 peptide treated well)/OD600 DMSO treated well×100%. DMSO treated, Salmonella challenged wells and sterile media with no Salmonella challenge were used as controls. This experiment was done twice to ensure the accuracy and reproducibility of the results.
MIC was determined by selecting peptide concentration at which there is no increased growth (no increase in OD), given indication of no ST growth. An independent repeat experiment was conducted.
Heat and protease tolerance of peptides: P1, P2, and P4 were heated for 6 minutes at 86° C. or treated with protease proteinase K, 200 μg/mL at 50° C. for 30 minutes. After which, the treated and/or heated peptides at their respective MICs were evaluated in the inhibition assay with Salmonella. The protocol from above was repeated in the Tecan with the same controls. […]

Biofilm embedded ST = assay: MBEC Assay; format: cell-based, Salmonella enterica; settings: at MICs; untreated 6.46 ± 0.09
Experimental: Peptides effect against biofilm embedded Salmonella: To analyze the ability of the peptides (P1, P2, and P4) to retain their inhibitory characteristics against biofilm protected Salmonella, Innovotech's MBEC Assay® (Innovotech Inc., AB, Canada) was conducted as previously detailed. Initially, 150 μL of 5×10^7 CFU/mL adjusted ST or SE suspension in LB media was aliquoted into the wells of MBEC inoculator plates containing polystyrene pegs and incubated for 36 h on a rocker platform at 37° C. to allow the biofilm formation. After biofilm formation, the pegs were washed to remove loosely adherent planktonic bacteria and transferred to a new 96-well plate containing peptides at MICs, with relevant controls, in 200 μL 25% LB media. The diluted LB media was used because it allows for slow bacterial growth to promote biofilm formation due to limited nutrients. The plate was incubated for 18 h at 37° C. with rotation at 150 rpm. Sterile media and DMSO were used as controls. Following incubation, the MICs of peptides in challenge plate were recorded. The pegs were transferred to new 96-well plate containing PBS and sonicated for 30 minutes to disrupt the biofilm. The sonicated suspensions were then ten-fold serially diluted and plated on LB agar plates to enumerate the biofilm protected bacteria and determine the minimum biofilm eradication concentration (MBEC) of peptides. Three independent experiments were conducted to ensure accuracy.

commensal bacteria = assay: Peptide activity against commensal bacteria; format: cell-based; settings: at MICs
Experimental: Peptide activity against commensal bacteria: Peptides 1, 2, and 4 were used to assess if they would inhibit commensal microbes. The commensal bacteria used along with their culture requirements are described in Table 25. Peptides at their MICs were added to 100 μL of known concentration of commensal bacteria and incubated under their required conditions. OD600 of cultures was measured to assess the effect of peptides on bacterial growth.

cecal microbiota = assay: Cecal microbiome analysis (peptides, ST infected); format: in vivo, chickens; settings: for Relative Abundance (%) Acinetobacter / Relative Abundance (%) Blautia / Relative Abundance (%) Caproiciproducens / Relative Abundance (%) Enterobacteriaceae (unidentified) / Relative Abundance (%) Epulopiscium / Relative Abundance (%) Lachnospiraceae (unidentified) / Relative Abundance (%) Lachnospiraceae NK4A136 group / Relative Abundance (%) Lactobacillus / Relative Abundance (%) Sellimonas / Relative Abundance (%) [Clostridium] innocuum group / Relative Abundance (%) [Eubacterium] coprostanoligenes group / Relative abundance (%) Anaerotruncus / Relative abundance (%) Clostridium sensu stricto 1 / Relative abundance (%) Enterococcus / Relative abundance (%) Erysipelatoclostridium / Relative abundance (%) Escherichia-Shigella / Relative abundance (%) Flavonifractor / Relative abundance (%) Lachnospiraceae (uncultured) / Relative abundance (%) Oscillibacter / Relative abundance (%) Pediococcus / Relative abundance (%) Ruminiclostridium 5 / Relative abundance (%) Ruminiclostridium 9 / Relative abundance (%) Ruminococcus torques group: genus
Experimental: Cecal microbiome analysis: To evaluate the role P1, P2, and P4 (50 mg/kg) treatment on the cecal microbiome of chickens, 16S rRNA based metagenomic study was conducted as previously described. DNA was extracted from approximately 0.2 g of cecal content using PureLink™ Microbiome DNA Purification Kit (Thermofisher Scientific). After which, RNA was removed with the treatment of RNase A (2 μL of 100 mg/mL solution per sample: Qiagen). NanoDrop 2000c Spectrophotometer (ThermoFisher Scientific) was used to check the quality and measure the quantity of the DNA. The extracted DNA was used in 16S rRNA V4-V5 sequencing done at MCIC (mcic.osu.edu/genomics/illumina-sequencing). Amplicon libraries were prepared using IFU KAPA HiFi HotStart ReadyMixPCR Kit (Roche). PCR products were cleaned using Agencourt AMPure XP beads (BECKMAN COULTER Life Sciences). Nextera XT DNA Library Preparation Kit (Illumina) was used to generate Illumina library and sequencing done with Illumina MiSeq platform generating paired end 300-bp reads. QIIME 2 (Quantitative Insights Into Microbial Ecology) bioinformatics platform (qiime2.org/) was used to conduct metagenomic analysis. Quality control of the raw reads was performed using FastQC 0.11.8 (Babraham Bioinformatics). Trimmomatic-0.33 was used to trim the adaptor and other Illumina-specific sequences (www.usadellab.org/cms/?page=trimmomatic). After which trimmed sequences (fastq.gz) were then imported into QIIME 2 as a manifest file format (PairedEndManifestPhred33V2). DADA2 was then used for the feature table construction and additional filtering of sequences. Taxonomic analysis was performed using Naive Bayes classifiers trained on the Silva 132 99% OTUs (silva-132-99-nb-classifier.qza) database. Phylogenetic diversity was analyzed using align-to-tree-mafft-fasttree pipeline. Additionally, Shannon's diversity index (alpha diversity) and Bray-Curtis distance (beta diversity) were analyzed using core-metrics-phylogenetic pipeline (docs.qiime2.org/2019.7/tutorials/moving-pictures/). Alpha and beta diversity statistical significance were analyzed using Kruskal-Wallis and PERMANOVA tests (P<0.05), respectively. The statistical difference (P<0.05) in the taxonomic composition between the groups was determined using Mann Whitney Test.

Substance | MIC against ST [1] | Biofilm embedded ST (Biofilm embedded ST) | Growth of Bacteroides thetaiotaomicron (commensal bacteria) | Growth of E. coli Nissle 1917 and E. coli G58-1 (commensal bacteria) | Growth of Gram-positive commensal bacteria (commensal bacteria) | Relative Abundance (%) Acinetobacter (cecal microbiota) | Relative Abundance (%) Blautia (cecal microbiota) | Relative Abundance (%) Caproiciproducens (cecal microbiota) | Relative Abundance (%) Enterobacteriaceae (unidentified) (cecal microbiota) | Relative Abundance (%) Epulopiscium (cecal microbiota) | Relative Abundance (%) Lachnospiraceae (unidentified) (cecal microbiota) | Relative Abundance (%) Lachnospiraceae NK4A136 group (cecal microbiota) | Relative Abundance (%) Lactobacillus (cecal microbiota) | Relative Abundance (%) Sellimonas (cecal microbiota) | Relative Abundance (%) [Clostridium] innocuum group (cecal microbiota) | Relative Abundance (%) [Eubacterium] coprostanoligenes group (cecal microbiota) | Relative abundance (%) Anaerotruncus (cecal microbiota) | Relative abundance (%) Clostridium sensu stricto 1 (cecal microbiota) | Relative abundance (%) Enterococcus (cecal microbiota) | Relative abundance (%) Erysipelatoclostridium (cecal microbiota) | other results
PDENK [Peptide P2, PDENK] | 15 mM | 0.00 ± 0.00 Log CFU/ml | no inhibition | inhibited | No growth inhibition | 0.00% | 0.00% | 0.63% | 6.22% | 0.17% | 37.10% | 0.00% | 5.57% | 1.76% | 0.00% | 0.00% | 0.00% | 0.00% | 0.00% | 5.56% | Relative abundance (%) Escherichia-Shigella (cecal microbiota): 13.25%; Relative abundance (%) Flavonifractor (cecal microbiota): 2.33%; Relative abundance (%) Lachnospiraceae (uncultured) (cecal microbiota): 4.21%; Relative abundance (%) Oscillibacter (cecal microbiota): 0.00%; Relative abundance (%) Pediococcus (cecal microbiota): 0.00%; Relative abundance (%) Ruminiclostridium 5 (cecal microbiota): 0.00%; Relative abundance (%) Ruminiclostridium 9 (cecal microbiota): 0.00† %; Relative abundance (%) Ruminococcus torques group (cecal microbiota): 23.19%
MLNERVK [Peptide P4, MLNERVK] | 18 mM | 0.00 ± 0.00 Log CFU/ml | no inhibition | inhibited | No growth inhibition | 0.00% | 1.60% | 0.00% | 4.54% | 0.00% | 44.19% | 0.53% | 7.01% | 0.57% | 0.00% | 0.00% | 0.48% | 0.00% | 0.00% | 3.51% | Relative abundance of Lachnospiraceae (cecal microbiota; family, negative control 53%): 78%; Relative abundance (%) Escherichia-Shigella (cecal microbiota): 3.16† %; Relative abundance (%) Flavonifractor (cecal microbiota): 1.20%; Relative abundance (%) Lachnospiraceae (uncultured) (cecal microbiota): *11.71%; Relative abundance (%) Oscillibacter (cecal microbiota): 1.35%; Relative abundance (%) Pediococcus (cecal microbiota): 0.75%; Relative abundance (%) Ruminiclostridium 5 (cecal microbiota): 0.00%; Relative abundance (%) Ruminiclostridium 9 (cecal microbiota): 0.13† %; Relative abundance (%) Ruminococcus torques group (cecal microbiota): 19.27%
